# Entries after “also recorded” stand apart in the source; their conditions may differ.
# Tests used:
# hippocampal neurons = assay: Effects of deoxy-galactose sugars on neuronal morphology (anti-tau immunostaining); type: cell-based, rat
# Procedure: Hippocampal neurons were plated on poly-DL-ornithine-coated glass coverslips as described above. After one day in culture, the medium was replaced with fresh medium, and the small molecules (2-dGal, 3-Deoxy-D-Galactose (3-dGal), or D-Galactose (Gal)) were added. A dose-response experiment was initially performed to determine the minimum concentration of 2-dGal needed to elicit an effect. Neurons were treated with varying concentrations of 2-dGal (1, 5, 10, 15, or 30 mM in 25 μL PBS with 475 μL of supplemented Neurobasal medium) for 2 days before immunostaining with anti-tau antibodies as described above.
# Cells were treated as above under 4 different conditions: (1) no treatment for 2 days, (2) incubation with 15 mM 2-dGal for 2 days, (3) incubation with 15 mM 2-dGal for 2 days followed by incubation with 75 mM Gal for 2 days, or (4) incubation with 15 mM 3-dGal for 2 days. After adding the small molecules, cultures were incubated at 37° C., 5% CO2, then washed once with PBS, and immunostained with anti-tau antibody as described above.
# [1] = test system: Fucα(1-2)Gal epitope on glycoproteins; assay: Western blot of neuronal lysates with anti-Fucα(1-2)Gal antibody A46-B/B10; type: cell-based, rat; details: 30 mM, 4 days
# Procedure: In addition to cells plated on coverslips, hippocampal neurons were grown in 30 mm dishes and treated with or without 30 mM 2-dGal (25 μL in PBS with 475 μL supplemented Neurobasal medium). After 4 days, cells were harvested with 2.5% trypsin, lysed with 1% boiling SDS with protease inhibitors, and cell lysates probed by Western blotting using the anti-Fucα(1-2)Gal antibody A46-B/B10 (Karsten, U., et al., G. Br. J. Cancer, 58:176-181 (1988)). Protein concentrations of the neuronal lysates were determined using the BCA Protein Assay (Pierce). Equal amounts of total protein were resolved by 10% SDS-PAGE, and proteins were transferred to PVDF membrane (Millipore) in 20 mM Tris-Cl pH 8.6/120 mM glycine/20% methanol. Western blots were blocked for 1 h with 3% periodated BSA (Glass, W. F., et al., Anal. Biochem., 115:219-224 (1981)) and rinsed with TBST (50 mM Tris-Cl pH 7.4/150 mM NaCl/0.1% Tween-20). Blots were incubated with anti-Fucα(1-2)Gal antibody A46-B/B10 (0.5 μg/mL; gift from Dr. U. Karsten, Max-Delbruck Centre for Molecular Medicine, Berlin-Buch, Germany) in TBST overnight at 4° C. with constant rocking, then rinsed and washed twice for 10 min with TBST. Immunoreactivity was visualized by incubation with a horseradish peroxidase conjugated goat anti-mouse antibody (1:2500; Pierce) in TBST for 1 h followed by a rinse and four washes of 20 min with TBST. […]
# [2] = test system: synapsin I expressed in HeLa cells; assay: Synapsin fucosylation and expression in synapsin I-transfected HeLa cells (immunoblotting); type: cell-based; details: deoxy sugar for 24 h
# Procedure: (§1) FIG. 19. Inhibition of synapsin fucosylation using 2-dGal decreases the expression and half-life of synapsin I. (A) Effects of 2-dGal and 6-dGal on synapsin fucosylation (left panel) and synapsin expression (right panel) levels. Synapsin I-transfected HeLa cells were treated with the indicated amounts of the deoxy sugar for 24 h. Fucosylation and synapsin expression levels were measured by immunoblotting with antibody A46-B/B10 and an anti-synapsin antibody, respectively. […] Synapsin I-transfected HeLa cells were treated with 2-dGal or a vehicle control (PBS), pulse labeled with ^35S-L-cysteine and ^35S-L-methionine as described in Materials and Methods, and chased for the indicated times. ^35S-labeled synapsin levels were measured by autoradiography. (C) Inhibition of the calcium-activated protease calpain using a calpain inhibitor peptide or calpeptin protects synapsin from degradation. […] Synapsin I-transfected HeLa cells were treated with the indicated inhibitors or vehicle control (DMSO, PBS or MeOH) in the presence or absence of 2-dGal for 15 h. Following lysis, the cell extracts were analyzed for synapsin expression levels by immunoblotting.
# The effects of 2-dGal on synapsin I expressed in HeLa cells were next investigated. Cell lysates containing equivalent amounts of transfected protein were resolved by SDS-PAGE, and the fucosylation and protein levels of synapsin were measured by immunoblotting, using methods described above.
# [3] = test system: synapsin I-transfected HeLa cells; assay: Synapsin degradation with inhibitors of protein degradation with or without 2-dGal; type: cell-based; details: 2-dGal alone, 15 h
# Procedure: as §1
# To investigate the molecular mechanisms responsible for synapsin degradation, cells expressing synapsin were treated with various inhibitors of protein degradation in the presence or absence of 2-dGal. Specifically, the lysosomal inhibitors bafilomycin A1 and ammonium chloride, the proteasome inhibitor MG132, and two inhibitors of the calcium-dependent protease calpain, were used.
# E18 cortical neurons = assay: Expression of synaptic proteins in cultured neurons (Western blotting); type: cell-based; details: 15 mM for 3 days, neurons 7 DIV
# Procedure: (§2) FIG. 20. […] (A) E18 cortical neurons cultured for 7 DIV were treated with 15 mM of 2-dGal or 6-dGal for 3 days. Protein lysates were analyzed by Western blotting using antibodies selective for the indicated proteins. A significant reduction in the expression of synapsin Ib was observed, while other synapse-associated proteins were unaffected by the 2-dGal treatment. (B) Neurite retraction caused by 2-dGal is reduced in synapsin-deficient mice. Neurons from synapsin I-deficient or wild-type mice were cultured for 2 days, treated with 2-dGal for 3 days, and analyzed for mean neurite length.
# To examine the effects of 2-dGal on synapsin fucosylation in neurons, neurons were cultured for 7 DIV to allow for adequate expression of synapsin and subsequently treated with 2-dGal or 6-dGal for comparison. Cells were lysed and immunoblotted as described above. […] The expression of other synaptic proteins, including NSF, the synaptic vesicle protein synaptotagmin, the presynaptic plasma membrane protein syntaxin, and the postsynaptic proteins PSD-95, the AMPA receptor GluR1 subunit and spinophilin, was unchanged by the 2-dGal treatment.
# [4] = test system: neurons from synapsin I-deficient or wild-type mice; assay: 2-dGal-mediated neurite retraction in neurons from synapsin I-deficient or wild-type mice; type: cell-based; details: cultured 2 days, 2-dGal for 3 days; n=50; p<0.003
# Procedure: as §2
# Although synapsin I represents the major fucosylated protein in mature neuronal cultures, other proteins are also covalently modified by Fucα(1-2)Gal during early developmental stages (See FIG. 9A). The relative contribution of synapsin to the striking effects of 2-dGal on neuronal morphology were therefore investigated. Neurons were cultured from synapsin I-deficient (Chin, L. S., et al., Proc. Natl. Acad. Sci. USA 92:9230-9234 (1995); Drs. H. T Kao and P. Greengard, The Rockefeller University, New York, N.Y.) or wild-type mice for 2 days, treated with 2-dGal for 3 days, immunostained for tubulin, and examined by confocal fluorescence microscopy. […]
# [5] = animals; cited from earlier work
# hippocampal slices = details: cited from earlier work
compound,measurement,setting,value
"O=CC[C@@H](O)[C@@H](O)[C@H](O)CO [Compound 2-dGal, 2-Deoxy-D-Galactose]",effect on neurite outgrowth,hippocampal neurons; 15 mM for 2 days,strong effect on neurite outgrowth; also recorded: severely stunted neurites and failed to form synapses; also recorded: inhibits neuronal growth
same,neurites with increasing concentration,"hippocampal neurons; 1, 5, 10, 15 or 30 mM for 2 days",gradual decrease in neurites
same,"cellular toxicity (trypan blue staining, adherence, morphology)",hippocampal neurons; concentrations up to 30 mM,No cellular toxicity
same,level of Fucα(1-2)Gal epitope on glycoproteins,[1],disrupted synthesis of the Fucα(1-2)Gal epitope on glycoproteins; also recorded: significantly reduced levels of the Fucα(1-2)Gal epitope; also recorded: diminishes expression of the Fucα(1-2)Gal epitope
same,fucosylation level of synapsin,[2],dramatic effect on the fucosylation level of synapsin
same,level of synapsin protein,[2],significant decrease in the level of synapsin protein
same,levels of synapsin expression,[3],significantly reduced the levels of synapsin expression
same,"expression of other synaptic proteins (NSF, synaptotagmin, syntaxin, PSD-95, GluR1, spinophilin)",E18 cortical neurons,unchanged
same,expression of synapsin I,E18 cortical neurons,dramatically reduced the expression of synapsin I; also recorded: reduces synapsin I expression levels
same,"increase of mean neurite length, synapsin knockout compared to wild-type neurons",[4],17.4±5.2%
same,effect on memory,[5],reversible amnesia
same,effect on LTP,hippocampal slices,interferes with the maintenance of long-term potentiation

# Reference: patent US7858578B2, “Methods of inducing neuronal growth by a Fucose-α(1-2) galactose (fuc-α(1-2) gal) moiety and a lectin” (California Institute of Technology, priority 2004, dated 2010)
